{"source": "patent US10058587B2", "about": "“Peptide composition for cancer treatment by inhibiting TRPV6 calcium channel activity” (priority 2008, dated 2018)", "key": {"[1]": {"experiment": "Physiological effects after i.v. injection into CD1 mice (blood pressure, heart rate, neurological/behavioral)", "assay_type": "in vivo", "procedure": "After in vivo i.v. injection into CD1 mice, SorC13 caused a small spike (approximately 25%) in blood pressure in the first 15 min which disappeared by 1 hour."}, "[2]": {"test_system": "SKOV3 ovarian cancer cell line", "experiment": "Induction of apoptosis (APO-ONE caspase 3/7) and cell viability (CellTiter Blue)", "assay_type": "cell-based, human", "set-up": "key to Decline in cell viability: decreased (+); or not (−)", "details": "for apoptosis (treatment:control ratio) compared with CAT cocktail: CAT = 10 uM Paclitaxel, 20 mM carboplatin", "procedure": "SKOV-3 was cultured in […] medium supplemented with 1.5 mM L-glutamine, 2.2 g/L sodium bicarbonate and 10% (v/v) fetal bovine serum.\n(§1) The levels of apoptotic induction and cell viability were determined by multiplexing the measurements for single samples. CellTiter Blue and APO-ONE assay systems from Promega allows the determination of cell viability correlated to cell number, and induction of apoptosis. This protocol uses a fluorgenic peptide that contains a peptide recognition-sequence for caspase 3 and caspase 7, […] proteolytic enzymes of the apoptosis cascade. The CellTiter Blue reagent was added to wells in a 96-well plate containing cells under test, immediately after addition of peptide solution or vehicle. About 5000 cells were plated into the wells the day before. At the chosen time (Day 1, Day 2 etc.) the fluorescence was measured at 590 nm (emission) after excitation at 560 nm. The caspase 3/7 activity was measured (485 nm Ex/527 nm Em) in the same wells after adding 120 uL of the Apo-ONE reagent, freeze fracturing at −80° C. for 1 hr, and incubating for 1 hr at room temperature.\n(§2) For this work, the concentrations of SorC13 and SorC27 used were 0 uM, 1 uM, 10 uM and 100 uM. The experiments extended over a 5 to 7 day period. All measurements were done in quadruplicate with both a blank (no cells) and control (vehicle, no peptide) used to correct the test measurements. The time-response data, and the dose-response data were plotted as means±standard error of the mean. Any statistical comparisons were done with the Student's t-test or by ANOVA analysis over the dose course. The level of statistical significance was considered to be the 95% confidence interval (i.e., p≤0.05).\nTo compare the effect of the two SorC-peptides against the gold-standard treatment for ovarian cancers SorC13 or SorC27 was compared to treatment with a carboplatin and taxol (CAT) cocktail (10 uM Paclitaxel, 20 mM carboplatin) using the APO-ONE assay, which measures the combined activities of caspase 3 and caspase 7. Because of the mixed treatment (CAT), the effects were compared in terms of the ratio of treatment:control. If no effect was noted then the ratio=1. Comparisons of the treatment:control ratios were examined with the Student's t-test at a confidence level of 95%. Ratios of larger than a value of unity indicated a positive effect. The effects are illustrated in FIG. 5."}, "Solubility (aqueous)": {"experiment": "Solubility (aqueous)", "details": "aqueous"}, "[3]": {"test_system": "NIH-OVCAR-3 and SKOV3 cells", "experiment": "Ovarian adenocarcinoma xenograft model (Example 14, general results)", "assay_type": "in vivo, NOD/SCID mice", "details": "400 mg/kg body weight", "procedure": "Optionally, to implant NIH-OVCAR-3 or SKOV3 tumor cells into NOD/SCID mice, cell cultures are centrifuged to pellet the cells, the supernatant is aspirated, the cell pellet is resuspended in 10 ml of growth media and the cell number is determined using a hemocytometer. The cells are then washed in appropriate media and re-suspended at a concentration of 5×10^7 cells/ml in media. Using a 27 gauge needle and 1 cc syringe, 0.1 ml of the cell suspension is injected subcutaneously into the flanks of the mice. Tumors are then permitted to develop in vivo until the majority reach 100-200 mm^3 in tumor volume, which typically requires 1-2 weeks following implantation. These tumors are used to produce tissue subcutaneous implants into NOD/SCID mice which after 2 days are treated with either the test peptides or CAT.\nTumor volumes (V) are calculated by caliper measurement using standard measurements of the width (W), length (L) and thickness (T) of tumors. Animals are randomized into treatment groups so that the median tumor volumes of each group were similar at the start of dosing. % T/C values, as a measure of efficacy, are determined where C refers to volume of control or untreated tumor, and T refers to volume of treated tumor.\nAnimals are intraperitoneally (i.p.) injected with this formulation at 10 ml per kg body weight on a schedule."}, "[4]": {"test_system": "HEY C2 ovarian cancer cell line", "experiment": "Induction of apoptosis (APO-ONE caspase 3/7) and cell viability (CellTiter Blue)", "assay_type": "cell-based, human", "set-up": "key to Decline in cell viability: decreased (+); or not (−)", "procedure": "HeyC2 was cultured in RPMI 1640 medium supplemented with 1.0 mM sodium pyruvate, 0.01 mg/mL insulin and 10% (v/v) fetal bovine serum.\nas §1, §2"}, "[5]": {"test_system": "T47D breast cancer xenografts", "experiment": "T-47D breast cancer xenograft, SorC13 with Paclitaxel (Example 27)", "assay_type": "in vivo, NOD/SCID mice", "procedure": "Tumor volumes (V) were calculated by caliper measurement using standard measurements of the width (W), length (L) and thickness (T) of tumors. Animals were randomized into treatment groups so that the median tumor volumes of each group were similar at the start of dosing. Percentage ΔT/ΔC values, as a measure of efficacy, were determined where ΔC refers to change in volume of control or untreated tumor, and ΔT refers to change in volume of treated tumor.\nAnimals were intraperitoneally (i.p.) injected with the vehicular control, or the low, medium or high doses of CAT or CAT and SorC13. Mice received low medium or high doses of CAT or CAT and SorC13 by i.p. injection every day for 12 days or CAT injections as set out in Table 10. Paclitaxel was injected first, followed by carboplatin 30 minutes later and then SorC13. The tumor volume and body weights were measured every day. As well, general health of the animals was monitored every day.\nThe human […] breast cancer cell line T-47D (ATCC #HTB-133), was cultured in growth media prepared with ATCC complete growth medium. The base medium for the T-47D cell line is ATCC-formulated RPMI-1640 Medium. The complete growth medium is supplemented with 0.2 Units/ml bovine insulin and fetal bovine serum to a final concentration of 10% (v/v). Cells were cultured at 37° C. in an atmosphere of 95% air and 5% carbon dioxide with sub-culturing done according to ATCC guidelines.\nThe cell preparation, formulation, implantation, measurement and treatment procedures were otherwise as described in Example 26 and Table 10 but with Paclitaxel at low (6 mg/kg), medium (10 mg/kg) and high (16 mg/kg) doses."}}, "note": "Where no end group is shown, it is not given here."}
{"sequence": "EGKLSSNDTEGGLCKEFLHPSKVDLPR [SorC27]", "values": [{"measurement": "Physiol. effects in vivo (mice) @ 5 mg/kg", "setting": "[1]; 5 mg/kg", "value": "None observed over 72 hr"}, {"measurement": "change in blood pressure or heart rate", "setting": "[1]; i.v., 1 hour measurement period", "value": "no change in blood pressure or heart rate"}, {"measurement": "neurological/behavioral changes", "setting": "[1]; i.v., over 72 hours", "value": "no also neurological/behavioral changes"}, {"measurement": "apoptosis (treatment:control ratio) compared with CAT cocktail", "setting": "[2]", "value": "produced apoptosis sooner and more intensely than the CAT cocktail"}, {"measurement": "Apoptosis Index (1 = no effect)", "setting": "[2]; Day 2, SorC27 10 uM", "value": 2.7}, {"measurement": "Apoptosis Index (1 = no effect)", "setting": "[2]; Day 2, SorC27 100 uM", "value": 1.5}, {"measurement": "Apoptosis Index (1 = no effect)", "setting": "[2]; Day 3, SorC27 1 uM", "value": 1.7}, {"measurement": "Apoptosis Index (1 = no effect)", "setting": "[2]; Day 3, SorC27 10 uM", "value": 2.4}, {"measurement": "Apoptosis Index (1 = no effect)", "setting": "[2]; Day 3, SorC27 100 uM", "value": 2.7}, {"measurement": "Decline in cell viability", "setting": "[2]; SorC27", "value": "+"}, {"measurement": "solubility", "setting": "Solubility (aqueous)", "value": "> 200", "unit": "mg/mL"}, {"measurement": "growth rate of tumor cells", "setting": "[3]", "value": "substantially decreases the growth rate"}, {"measurement": "Apoptosis Index (1 = no effect)", "setting": "[4]; Day 6, SorC27 100 uM", "value": 1.4}, {"measurement": "Apoptosis Index (1 = no effect)", "setting": "[4]; Day 7, SorC27 10 uM", "value": 2.2}, {"measurement": "Apoptosis Index (1 = no effect)", "setting": "[4]; Day 7, SorC27 100 uM", "value": 2.8}, {"measurement": "Decline in cell viability", "setting": "[4]; SorC27", "value": "+"}]}
{"sequence": "KEFLHPSKVDLPR [SorC13, KEFLHPSKVDLPR]", "values": [{"measurement": "% ΔT/ΔC (tumor volume normalized to control)", "setting": "[5]; Day 6, SorC13 300 mg/kg", "value": 66.0, "unit": "%"}, {"measurement": "% ΔT/ΔC (tumor volume normalized to control)", "setting": "[5]; Day 12, SorC13 300 mg/kg", "value": 1.0, "unit": "%"}, {"measurement": "% ΔT/ΔC (tumor volume normalized to control)", "setting": "[5]; Day 18 (rest period), SorC13 300 mg/kg", "value": 54.5, "unit": "%"}, {"measurement": "% ΔT/ΔC (tumor volume normalized to control)", "setting": "[5]; Day 24 (rest period), SorC13 300 mg/kg", "value": 48.7, "unit": "%"}, {"measurement": "Mean tumour volume", "setting": "[5]; after 12-day rest post-treatment, SorC13 300 mg/kg", "value": 55.76, "unit": "mm^3"}, {"measurement": "Mean tumor volume", "setting": "[5]; day 12 of treatment, SorC13 300 mg/kg i.p. daily", "value": 43.61, "unit": "mm^3"}, {"measurement": "apoptosis (treatment:control ratio) compared with CAT cocktail", "setting": "[2]", "value": "produced earlier and more intense apoptosis cascade than the CAT cocktail"}, {"measurement": "Apoptosis Index (1 = no effect)", "setting": "[2]; Day 4, SorC13 100 uM", "value": 2.2}, {"measurement": "Apoptosis Index (1 = no effect)", "setting": "[2]; Day 5, SorC13 100 uM", "value": 2.7}, {"measurement": "Decline in cell viability", "setting": "[2]; Day 5, SorC13 100 uM", "value": "+"}, {"measurement": "growth rate of tumor cells", "setting": "[3]", "value": "substantially decreases the growth rate"}]}
